The target in the assay is T1, h-5-HT6 receptor (Homo sapiens, UniProt P50406).
T1 construct: expressed in transfected cells
Put plainly: 5-HT6 receptor binding assay (displacement of [3H]-LSD). The conditions noted are these: membranes of HEK293 cells expressing h-5-HT6 receptor, 1 nM [3H]-LSD; read-out: Ki (5HT6). Background: Displacement assays read how much labelled ligand stays bound in the presence of the test substance.

pKi: −log10 of the molar value. Where a name gives a salt, the structure may show the parent alone.

T1 sequence (P50406 whole entry): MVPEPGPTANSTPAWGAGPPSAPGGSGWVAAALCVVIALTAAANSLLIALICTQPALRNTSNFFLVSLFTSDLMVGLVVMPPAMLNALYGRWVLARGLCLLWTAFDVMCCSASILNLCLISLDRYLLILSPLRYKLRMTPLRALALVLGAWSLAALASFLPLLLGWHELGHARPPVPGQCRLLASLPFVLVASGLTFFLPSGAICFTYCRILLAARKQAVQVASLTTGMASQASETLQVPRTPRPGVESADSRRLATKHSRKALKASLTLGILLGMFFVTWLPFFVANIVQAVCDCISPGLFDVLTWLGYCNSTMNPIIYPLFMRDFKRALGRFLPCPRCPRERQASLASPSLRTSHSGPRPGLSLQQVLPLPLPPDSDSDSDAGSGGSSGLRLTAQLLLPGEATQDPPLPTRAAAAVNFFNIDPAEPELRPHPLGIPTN

With `Cc1ccc(NS(=O)(=O)c2ccc(C)c(N3CCN(C)CC3)c2)c(OC(F)F)c1` [Example 91, N-(2-Difluoromethoxy-4-methyl-phenyl)-4-methyl-3-(4-methyl-piperazin-1-yl)-benzenesulfonamide hydrochloride], the pKi (commonly the Ki on a negative log10 scale, so that one unit is a factor of ten) was greater than 7.30. As to `Cc1ccc(OC(F)F)c(NS(=O)(=O)c2ccc(C)c(N3CCN(C)CC3)c2)c1` [Example 92, N-(2-Difluoromethoxy-5-methyl-phenyl)-4-methyl-3-(4-methyl-piperazin-1-yl)-benzenesulfonamide hydrochloride], the pKi is greater than 8.00. On to `COc1cc(NS(=O)(=O)c2ccc(OC)c(N3CCNCC3)c2)ccc1OC(F)F` [Example 93, N-(4-Difluoromethoxy-3-methoxy-phenyl)-4-methoxy-3-piperazin-1-yl-benzenesulfonamide hydrochloride], for which the pKi was greater than 8.00. `Cc1ccc(S(=O)(=O)Nc2cccc(OC(F)F)c2)cc1N1CCN(C)CC1` [Example 94, N-(3-Difluoromethoxy-phenyl)-4-methyl-3-(4-methyl-piperazin-1-yl)-benzenesulfonamide hydrochloride]: the pKi is greater than 8.00. Under `COc1ccc(S(=O)(=O)Nc2ccc(OC(F)F)cc2)cc1N1CCN(C)CC1` [Example 95, N-(4-Difluoromethoxy-phenyl)-4-methoxy-3-(4-methyl-piperazin-1-yl)-benzenesulfonamide hydrochloride] stands greater than 8.00; under `Cc1ccc(S(=O)(=O)Nc2cccc(OC(F)F)c2)cc1N1CCCNCC1` [Example 96, 3-[1,4]Diazepan-1-yl-N-(3-difluoromethoxy-phenyl)-4-methyl-benzenesulfonamide hydrochloride], greater than 7.30.

For `Cc1ccc(S(=O)(=O)Nc2ccccc2OC(F)F)cc1N1CCCNCC1` [Example 97, 3-[1,4]Diazepan-1-yl-N-(2-difluoromethoxy-phenyl)-4-methyl-benzenesulfonamide hydrochloride], the pKi was greater than 8.00. With `Cc1ccc(NS(=O)(=O)c2ccc(C)c(N3CCCNCC3)c2)cc1OC(F)F` [Example 98, 3-[1,4]Diazepan-1-yl-N-(3-difluoromethoxy-4-methyl-phenyl)-4-methyl-benzenesulfonamide hydrochloride], the negative-log Ki (pKi) is greater than 7.30. As for `Cc1ccc(NS(=O)(=O)c2ccc(C)c(N3CCCN(C)CC3)c2)cc1OC(F)F` [Example 99, N-(3-Difluoromethoxy-4-methyl-phenyl)-4-methyl-3-(4-methyl-[1,4]diazepan-1-yl)-benzenesulfonamide hydrochloride], the pKi was greater than 6.30. As for `Cc1ccc(S(=O)(=O)Nc2ccccc2OC(F)F)cc1N1CCCN(C)CC1` [Example 100, N-(2-Difluoromethoxy-phenyl)-4-methyl-3-(4-methyl-[1,4]diazepan-1-yl)-benzenesulfonamide hydrochloride], the pKi is greater than 8.00. In the case of `Cc1ccc(S(=O)(=O)Nc2cccc(OC(F)F)c2)cc1N1CCCN(C)CC1` [Example 101, N-(3-Difluoromethoxy-phenyl)-4-methyl-3-(4-methyl-[1,4]diazepan-1-yl)-benzenesulfonamide hydrochloride], the pKi is greater than 8.00. Turning to `CCOc1ccc(S(=O)(=O)Nc2ccc(C)cc2OC(F)F)cc1N1CCNCC1` [Example 106, N-(2-Difluoromethoxy-4-methylphenyl)-4-ethoxy-3-piperazin-1-yl benzenesulfonamide], the pKi was greater than 8.00.

Source of the values: patent US8343959B2, “N-phenyl-(piperazinyl or homopiperazinyl)-benzenesulfonamide or benzenesulfonyl-phenyl-(piperazine or homopiperazine) compounds suitable for treating disorders that respond to modulation of the serotonin 5-HT6 receptor” (Abbott GmbH & Co. KG, priority 2009, dated 2013).
